According to patent US20080051387A1, “TETRAHYDROPYRIDO[3,4-D]PYRIMIDINES AND RELATED ANALOGUES” (priority 2006, published 2008):

Molecular target: T1, chimeric human H3 receptor (Homo sapiens, UniProt Q9Y5N1)
T1 construct: rat Galpha-i2 (Gnai2, rat); made in house; host or cells: Sf9 insect cells (baculovirus); P2 membranes
Experiment: Chimeric human H3 receptor screening GTP binding assay (inhibition of histamine-stimulated GTP-gamma35S binding, Example 8)
Format: biochemical
Conditions: 1 h; assay described in Example 8; symbol "!" in column headed Ki; read-out: Ki ("!": percent inhibition of agonist-induced GTP-gammaS binding to H3)
Method in brief: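 Compound tested at 4 μM against 1 μM histamine stimulation; 125 pM GTP-gamma35S binding measured by filtration and scintillation after 60 min at room temperature. Membranes from Sf9 cells expressing chimeric human H3 plus G-protein subunits, in Tris pH 7.4/NaCl/MgCl2/GDP buffer; values are % inhibition after nonspecific subtraction.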

T1 sequence (Q9Y5N1 with tags, fused parts or gaps): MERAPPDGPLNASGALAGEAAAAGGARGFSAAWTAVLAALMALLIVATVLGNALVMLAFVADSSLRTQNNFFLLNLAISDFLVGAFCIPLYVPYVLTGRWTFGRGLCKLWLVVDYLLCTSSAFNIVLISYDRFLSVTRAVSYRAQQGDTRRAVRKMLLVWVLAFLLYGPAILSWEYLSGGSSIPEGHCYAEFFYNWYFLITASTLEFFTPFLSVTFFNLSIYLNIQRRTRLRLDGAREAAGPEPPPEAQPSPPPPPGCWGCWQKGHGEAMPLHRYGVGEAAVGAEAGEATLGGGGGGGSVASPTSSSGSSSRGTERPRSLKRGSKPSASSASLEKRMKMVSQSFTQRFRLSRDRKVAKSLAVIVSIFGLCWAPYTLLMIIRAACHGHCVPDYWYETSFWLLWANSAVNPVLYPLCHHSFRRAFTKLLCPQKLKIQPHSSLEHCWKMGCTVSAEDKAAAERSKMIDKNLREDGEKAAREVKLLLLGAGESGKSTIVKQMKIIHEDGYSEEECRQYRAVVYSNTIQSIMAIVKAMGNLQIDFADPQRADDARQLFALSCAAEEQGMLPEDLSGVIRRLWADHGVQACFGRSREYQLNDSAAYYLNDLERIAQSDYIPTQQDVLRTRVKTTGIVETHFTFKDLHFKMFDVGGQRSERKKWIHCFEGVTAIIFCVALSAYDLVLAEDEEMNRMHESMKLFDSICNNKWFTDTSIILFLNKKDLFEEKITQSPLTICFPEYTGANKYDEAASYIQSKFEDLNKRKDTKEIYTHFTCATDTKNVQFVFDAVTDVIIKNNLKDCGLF

| inhibition at 4 µM | SMILES |
| --- | --- |
| ≥ 90% | COc1c(Cl)cc(Cl)c(OC)c1C(=O)N1CCc2cnc(N3CCN(C4CCC4)CC3)nc2CC1 [Compound 427, 2-(4-cyclobutylpiperazin-1-yl)-7-(3,5-dichloro-2,6-dimethoxybenzoyl)-6,7,8,9-tetrahydro-5H-pyrimido[4,5-d]azepine] |
| ≥ 90% | COc1cccc(OC)c1C(=O)N1CCc2cnc(N3CCN(C4CCC4)CC3)nc2CC1 [Compound 424, 2-(4-cyclobutylpiperazin-1-yl)-7-(2,6-dimethoxybenzoyl)-6,7,8,9-tetrahydro-5H-pyrimido[4,5-d]azepine] |
| ≥ 90% | COc1ccc(Br)c(OC)c1C(=O)N1CCc2cnc(N3CCN(C4CCC4)CC3)nc2CC1 [Compound 414, 7-(3-bromo-2,6-dimethoxybenzoyl)-2-(4-cyclobutylpiperazin-1-yl)-6,7,8,9-tetrahydro-5H-pyrimido[4,5-d]azepine] |
| ≥ 90% | O=C(/C=C/c1ccc(C(F)(F)F)cc1)N1CCc2cnc(N3CCN(C4CCC4)CC3)nc2CC1 [Compound 550, 2-(4-cyclobutylpiperazin-1-yl)-7-{(2E)-3-[4-(trifluoromethyl)phenyl]prop-2-enoyl}-6,7,8,9-tetrahydro-5H-pyrimido[4,5-d]azepine] |
| ≥ 90% | Cc1cccc(C(=O)N2CCc3cnc(N4CCN(C5CCC5)CC4)nc3CC2)c1F [Compound 388, 2-(4-cyclobutylpiperazin-1-yl)-7-(2-fluoro-3-methylbenzoyl)-6,7,8,9-tetrahydro-5H-pyrimido[4,5-d]azepine] |
| ≥ 90% | COc1ccc(C(=O)N2CCc3cnc(N4CCN(C5CCC5)CC4)nc3CC2)c(OC)n1 [Compound 542, 2-(4-cyclobutylpiperazin-1-yl)-7-[(2,6-dimethoxypyridin-3-yl)carbonyl]-6,7,8,9-tetrahydro-5H-pyrimido[4,5-d]azepine] |
| ≥ 90% | O=C(c1ccsc1)N1CCc2cnc(N3CCN(C4CCC4)CC3)nc2CC1 [Compound 464, 2-(4-cyclobutylpiperazin-1-yl)-7-(3-thienylcarbonyl)-6,7,8,9-tetrahydro-5H-pyrimido[4,5-d]azepine] |
| ≥ 90% | O=C(/C=C/c1ccc2c(c1)OCO2)N1CCc2cnc(N3CCN(C4CCC4)CC3)nc2CC1 [Compound 567, 7-[(2E)-3-(1,3-benzodioxol-5-yl)prop-2-enoyl]-2-(4-cyclobutylpiperazin-1-yl)-6,7,8,9-tetrahydro-5H-pyrimido[4,5-d]azepine] |
| ≥ 90% | O=C(c1cnn(-c2ccccc2)c1C(F)(F)F)N1CCc2cnc(N3CCN(C4CCC4)CC3)nc2CC1 [Compound 511, 2-(4-cyclobutylpiperazin-1-yl)-7-{[1-phenyl-5-(trifluormethyl)-1H-pyrazol-4-yl]carbonyl}-6,7,8,9-tetrahydro-5H-pyrimido[4,5-d]azepine] |
| ≥ 90% | COc1cccc(/C=C/C(=O)N2CCc3cnc(N4CCN(C5CCC5)CC4)nc3CC2)c1OC [Compound 573, 2-(4-cyclobutylpiperazin-1-yl)-7-[(2E)-3-(2,3-dimethoxyphenyl)prop-2-enoyl]-6,7,8,9-tetrahydro-5H-pyrimido[4,5-d]azepine] |
| ≥ 90% | O=C(Cc1ccc2ccccc2c1)N1CCc2cnc(N3CCN(C4CCC4)CC3)nc2CC1 [Compound 522, 2-(4-cyclobutylpiperazin-1-yl)-7-(2-naphthylacetyl)-6,7,8,9-tetrahydro-5H-pyrimido[4,5-d]azepine] |
| ≥ 90% | Cc1nc(C)c(C(=O)N2CCc3cnc(N4CCN(C5CCC5)CC4)nc3CC2)s1 [Compound 525, 2-(4-cyclobutylpiperazin-1-yl)-7-[(2,4-dimethyl-1,3-thiazol-5-yl)carbonyl]-6,7,8,9-tetrahydro-5H-pyrimido[4,5-d]azepine] |
| ≥ 90% | Cc1cnc(C(=O)N2CCc3cnc(N4CCN(C5CCC5)CC4)nc3CC2)cn1 [Compound 486, 2-(4-cyclobutylpiperazin-1-yl)-7-[(5-methylpyrazin-2-yl)carbonyl]-6,7,8,9-tetrahydro-5H-pyrimido[4,5-d]azepine] |
| ≥ 90% | CCn1c(C(=O)N2CCc3cnc(N4CCN(C5CCC5)CC4)nc3CC2)cc2ccccc21 [Compound 462, 2-(4-cyclobutylpiperazin-1-yl)-7-[(1-ethyl-1H-indol-2-yl)carbonyl]-6,7,8,9-tetrahydro-5H-pyrimido[4,5-d]azepine] |

Same assay, conditions: 1 h; assay of Example 8; symbol "!" in column headed Ki; read-out: percent inhibition of agonist-induced GTP-gammaS binding to H3

| SMILES | inhibition at 4 µM |
| --- | --- |
| O=C(Cc1ccccc1OC(F)(F)F)N1CCc2cnc(N3CCN(C4CCC4)CC3)nc2CC1 [Compound 313, 2-(4-cyclobutylpiperazin-1-yl)-7-{[2-(trifluoromethoxy)phenyl]acetyl}-6,7,8,9-tetrahydro-5H-pyrimido[4,5-d]azepine] | ≥ 90% |
| CC(Oc1ccccc1)C(=O)N1CCc2cnc(N3CCN(C4CCC4)CC3)nc2CC1 (stereo not drawn) [Compound 339, 2-(4-cyclobutylpiperazin-1-yl)-7-(2-phenoxypropanoyl)-6,7,8,9-tetrahydro-5H-pyrimido[4,5-d]azepine] | ≥ 90% |
| O=C(Cc1cccc(OC(F)(F)F)c1)N1CCc2cnc(N3CCN(C4CCC4)CC3)nc2CC1 [Compound 279, 2-(4-cyclobutylpiperazin-1-yl)-7-{[3-(trifluoromethoxy)phenyl]acetyl}-6,7,8,9-tetrahydro-5H-pyrimido[4,5-d]azepine] | ≥ 90% |
| O=C(C1COc2ccccc2O1)N1CCc2cnc(N3CCN(C4CCC4)CC3)nc2CC1 (stereo not drawn) [Compound 341, 2-(4-cyclobutylpiperazin-1-yl)-7-(2,3-dihydro-1,4-benzodioxin-2-ylcarbonyl)-6,7,8,9-tetrahydro-5H-pyrimido[4,5-d]azepine] | ≥ 90% |
| COc1cc(CC(=O)N2CCc3cnc(N4CCN(C5CCC5)CC4)nc3CC2)cc(OC)c1OC [Compound 276, 2-(4-cyclobutylpiperazin-1-yl)-7-[(3,4,5-trimethoxyphenyl)acetyl]-6,7,8,9-tetrahydro-5H-pyrimido[4,5-d]azepine] | ≥ 90% |

Next, values leading:

| inhibition at 4 µM | SMILES |
| --- | --- |
| ≥ 90% | CC(C)CCN1CCc2cnc(N3CCN(C4CCC4)CC3)nc2CC1 [Compound 246, 2-(4-cyclobutylpiperazin-1-yl)-7-(3-methylbutyl)-6,7,8,9-tetrahydro-5H-pyrimido[4,5-d]azepine] |
| ≥ 90% | Cc1ccc(OCC(=O)N2CCc3cnc(N4CCN(C5CCC5)CC4)nc3CC2)cc1 [Compound 316, 2-(4-cyclobutylpiperazin-1-yl)-7-[(4-methylphenoxy)acetyl]-6,7,8,9-tetrahydro-5H-pyrimido[4,5-d]azepine] |
| ≥ 90% | COc1nc(N2CCN(C3CCC3)CC2)nc2c1CCN(C(=O)c1ccccc1)CC2 [Compound 270, 7-benzoyl-2-(4-cyclobutylpiperazin-1-yl)-4-methoxy-6,7,8,9-tetrahydro-5H-pyrimido[4,5-d]azepine] |
| ≥ 90% | CNC(=O)c1ccc(N2CCc3cnc(N4CCN(C5CCC5)CC4)nc3CC2)nc1 [Compound 186, 6-[2-(4-cyclobutylpiperazin-1-yl)-5,6,8,9-tetrahydro-7H-pyrimido[4,5-d]azepin-7-yl]-N-methylnicotinamide] |

Same assay, conditions: symbol ! in Ki; test compound 4 μM, 1 μM histamine; read-out: percent inhibition of agonist-induced GTP-gammaS binding to H3

| inhibition at 4 µM | SMILES |
| --- | --- |
| ≥ 90% | c1nc2c(c(N3CCN(C4CCC4)CC3)n1)CCN(Cc1ccc(N3CCOCC3)nc1)CC2 [Compound 155, 4-(4-cyclobutylpiperazin-1-yl)-7-[(6-morpholin-4-ylpyridin-3-yl)methyl]-6,7,8,9-tetrahydro-5H-pyrimido[4,5-d]azepine] |
| ≥ 90% | COc1cccc(CN2CCc3ncnc(N4CCN(C5CCC5)CC4)c3CC2)c1OC [Compound 175, 4-(4-cyclobutylpiperazin-1-yl)-7-(2,3-dimethoxybenzyl)-6,7,8,9-tetrahydro-5H-pyrimido[4,5-d]azepine] |
| ≥ 90% | Clc1ccc(CN2CCc3c(ncnc3N3CCN(C4CCC4)CC3)C2)c(Cl)c1 [Compound 99, 4-(4-cyclobutylpiperazin-1-yl)-7-(2,4-dichlorobenzyl)-5,6,7,8-tetrahydropyrido[3,4-d]pyrimidine] |
| ≥ 90% | CCCCCCN1CCc2ncnc(N3CCN(C4CCC4)CC3)c2CC1 [Compound 165, 4-(4-cyclobutylpiperazin-1-yl)-7-hexyl-6,7,8,9-tetrahydro-5H-pyrimido[4,5-d]azepine] |
| ≥ 90% | Fc1cccc(CN2CCc3c(ncnc3N3CCN(C4CCC4)CC3)C2)c1 [Compound 67, 4-(4-cyclobutylpiperazin-1-yl)-7-(3-fluorobenzyl)-5,6,7,8-tetrahydropyrido[3,4-d]pyrimidine] |
| ≥ 90% | Cc1ncccc1C(=O)N1CCc2c(ncnc2N2CCN(C3CCC3)CC2)C1 [Compound 38, 4-(4-cyclobutylpiperazin-1-yl)-7-[(2-methylpyridin-3-yl)carbonyl]-5,6,7,8-tetrahydropyrido[3,4-d]pyrimidine] |
| ≥ 90% | CC(C)CCC(=O)N1CCc2c(ncnc2N2CCN(C3CCC3)CC2)C1 [Compound 46, 4-(4-cyclobutylpiperazin-1-yl)-7-(4-methylpentanoyl)-5,6,7,8-tetrahydropyrido[3,4-d]pyrimidine] |
| ≥ 90% | CCC(CC)C(C)N1CCc2c(ncnc2N2CCN(C3CCC3)CC2)C1 (stereo not drawn) [Compound 123, 4-(4-cyclobutylpiperazin-1-yl)-7-(2-ethyl-1-methylbutyl)-5,6,7,8-tetrahydropyrido[3,4-d]pyrimidine] |
| ≥ 90% | Cc1ccc(C(C)N2CCc3c(ncnc3N3CCN(C4CCC4)CC3)C2)cc1 (stereo not drawn) [Compound 106, 4-(4-cyclobutylpiperazin-1-yl)-7-[1-(4-methylphenyl)ethyl]-5,6,7,8-tetrahydropyrido[3,4-d]pyrimidine] |
| ≥ 90% | Cc1cc(CN2CCc3nc(N4CCN(C5CCC5)CC4)ncc3C2)n(C)n1 [Compound 622, 2-(4-cyclobutylpiperazin-1-yl)-6-[(1,3-dimethyl-1H-pyrazol-5-yl)methyl]-5,6,7,8-tetrahydropyrido[4,3-d]pyrimidine] |
